Test results published in US20240277717A1, “APPLICATION OF GANCICLOVIR IN PREPAPRATION OF MEDICINE FOR TREATING ALLERGIC RHINITIS” (Union Hospital, Tongji Medical College, Huazhong University …, priority 2023, published 2024).

Columns and labels:
[1] = test system: IL-2, IL-4, IL-5, IL-6, IL-13, IL-17A, IL-28A, IL-33, IFN-α, IFN-β, IFN-γ, IFN-λ, Eotaxin in the nasal secretions; experiment: Cytokine levels in the nasal secretions measured by Luminex; assay type: in vivo, human; details: for IL-2 in nasal secretions, after treatment: mean ± SD
Experimental: Two pieces of 1.0 centimeter (cm)×1.5 cm sterile medical sponge are gently placed into the patient's bilateral nasal cavity for 1-5 minutes (min). After the sponge adsorbs enough the nasal secretions, the sponge is gently removed and put into a 2 milliliters (mL) syringe. The nasal secretions are squeezed out and collected in a 1.5 mL centrifuge tube, centrifuged at 3000 revolutions per minute (rpm) for 5 min, and the supernatant is taken and placed in a refrigerator at −80° C. for testing. Eosinophil cationic protein (ECP) in the nasal secretions is detected by enzyme-linked immunosorbent assay (ELISA). The ECP-ELISA kit is from Zhongmin Taike Biotechnology Co., Ltd. Cytokine levels of interleukin (IL)-2, IL-4, IL-5, IL-6, IL-13, IL-17A, IL-28A, IL-33, interferon (IFN)-α, IFN-β, IFN-γ, IFN-λ, and Eotaxin in the nasal secretions are measured by using Luminex (R&D; LXSAHM-13).

[2] = test system: eosinophils in nasal secretions; experiment: Nasal secretion smears, percentage of eosinophils in inflammatory cells; assay type: in vivo, human
Excerpt: The patients blow their nose (both sides), or gently rotate a glass rod at a front end of the patients' nasal vestibule to obtain the nasal secretions, avoiding rubbing the mucosal surface as much as possible. The obtained nasal secretions are evenly and lightly coated on slides, and a coverage area of the nasal secretion smear is required to exceed ⅔ of the slides. After natural air drying, the slides are dyed with Wright-Giemsa stain (Baso Diagnostics Inc. Zhuhai; China). After dyeing, cells are counted under an optical microscope. A percentage of eosinophils in inflammatory cells under 10×100 times microscope is observed, and an average value of 5 visual fields is taken as a result.

[3] = test system: EB virus, human-cytomegalovirus, HSV 1, 2, 3, 6, 7, 8; experiment: DNA virus sequence enrichment analysis of nasal scraping cells; assay type: in vivo; details: GCV effective group
Experimental: The scraped mucosal epithelial cells are placed in a TRIzol™ reagent (Invitrogen™) and stored in liquid nitrogen for processing. Library preparation and high-throughput sequencing, data analysis, ribonucleic acid (RNA) sequence and deoxyribonucleic acid (DNA) virus sequence enrichment analysis are performed by Seqhealth Technology Co., Ltd. (China; wuhan). Sample quality analysis is performed by Nanodrop™ OneC spectrophotometer to detect expression at A260 and A280. Qualified samples are finally quantified by QubitR®3.0 fluorometer and Qubit™ RNA broad-range (BR) Assay kits. The original data is first filtered by Trimomatic (Version 0.36). Counting by FeatureCounts, and then calculate reads per kilobase of exon model per million mapped reads (RPKM). Differentially expressed genes between groups are identified using an edgeR package (Version 3.12.1). In analysis, P value<0.05 and fold change (FC) higher than 2 are considered to be significant differences in gene expression between groups.

[4] = GCV effective group and GCV ineffective group

Which “all cytokines and inflammatory factors in nasal secretions, change after GCV treatment” value [1, 4] does the source give for `Nc1nc(O)c2ncn(COC(CO)CO)c2n1` [GCV, Ganciclovir] here?
The value was “do not change”.

And the “IFN-β in nasal secretions, after treatment” value ([1]; GCV effective group, before 26.49 ± 26.34)?
Its value is 38.86 ± 54.29 pg/mL.

And the “IFN-α in nasal secretions, after treatment” value ([1]; GCV effective group, before 31.09 ± 28.65)?
The value was 32.77 ± 23.83 pg/mL.

What about the “IL-6 in nasal secretions, after treatment” value ([1]; GCV effective group, before 39.10 ± 34.59) of the same compound?
Its value is 30.44 ± 27.04 pg/mL.

And the “IL-17A in nasal secretions, after treatment” value ([1]; GCV effective group, before 55.38 ± 27.4)?
The value was 58.92 ± 43.93 pg/mL.

And the “IL-4 in nasal secretions, after treatment” value ([1]; GCV effective group, before 109.67 ± 23.95)?
The value was 105.32 ± 25.44 pg/mL.

What about the “IFN-γ in nasal secretions, after treatment” value ([1]; GCV effective group, before 181.83 ± 266.06) of the same compound?
The value was 120.24 ± 116.93 pg/mL.

What about the “IL-5 in nasal secretions, after treatment” value ([1]; GCV effective group, before 197.49 ± 388.67) of the same compound?
The value was 134.24 ± 172.57 pg/mL.

And the “Eotaxin in nasal secretions, after treatment” value ([1]; GCV effective group, before 206.5 ± 212.85)?
Its value is 153.51 ± 101.87 pg/mL.

And the “IL-33 in nasal secretions, after treatment” value ([1]; GCV effective group, before 277.39 ± 303.34)?
Its value is 293.62 ± 396.68 pg/mL.

What about the “IFN-λ in nasal secretions, after treatment” value ([1]; GCV effective group, before 313.99 ± 194.7) of the same compound?
The value was 331.23 ± 237.77 pg/mL.

And the “IL-13 in nasal secretions, after treatment” value ([1]; GCV effective group, before 455.81 ± 190.16)?
The value was 397.80 ± 116.61 pg/mL.

And the “IL-28A in nasal secretions, after treatment” value ([1]; GCV effective group, before 718.08 ± 263.12)?
Its value is 740.68 ± 214.99 pg/mL.

What about the “IL-2 in nasal secretions, after treatment” value ([1]; GCV effective group, before 148.69 ± 43.59) of the same compound?
The value was 132.85 ± 40.51 pg/mL.

What about the “IFN-β in nasal secretions, after treatment” value ([1]; GCV ineffective group, before 19.58 ± 12.05) of the same compound?
The value was 17.86 ± 8.57 pg/mL.

What about the “Eotaxin in nasal secretions, after treatment” value ([1]; GCV ineffective group, before 36.79 ± 25.41) of the same compound?
Its value is 50.35 ± 47.92 pg/mL.

And the “IL-6 in nasal secretions, after treatment” value ([1]; GCV ineffective group, before 49.62 ± 10.4)?
Its value is 65.53 ± 44.86 pg/mL.

What about the “IL-17A in nasal secretions, after treatment” value ([1]; GCV ineffective group, before 59.88 ± 40.6) of the same compound?
The value was 48.13 ± 18.73 pg/mL.

What about the “IFN-γ in nasal secretions, after treatment” value ([1]; GCV ineffective group, before 106.77 ± 51.92) of the same compound?
The value was 80.25 ± 44.49 pg/mL.

And the “IFN-α in nasal secretions, after treatment” value ([1]; GCV ineffective group, before 129.83 ± 170.32)?
Its value is 57.51 ± 49.01 pg/mL.

What about the “IL-4 in nasal secretions, after treatment” value ([1]; GCV ineffective group, before 151.81 ± 71.34) of the same compound?
Its value is 116.44 ± 53.74 pg/mL.

What about the “IL-5 in nasal secretions, after treatment” value ([1]; GCV ineffective group, before 218.52 ± 189.78) of the same compound?
The value was 70.26 ± 57.39 pg/mL.

And the “IFN-λ in nasal secretions, after treatment” value ([1]; GCV ineffective group, before 371.83 ± 248.73)?
The value was 363.86 ± 203.72 pg/mL.

And the “IL-13 in nasal secretions, after treatment” value ([1]; GCV ineffective group, before 382.32 ± 104.87)?
Its value is 282.34 ± 55.29 pg/mL.

And the “IL-28A in nasal secretions, after treatment” value ([1]; GCV ineffective group, before 392.09 ± 218.69)?
Its value is 447.41 ± 202.35 pg/mL.

What about the “IL-33 in nasal secretions, after treatment” value ([1]; GCV ineffective group, before 583.28 ± 515.20) of the same compound?
The value was 436.61 ± 500.63 pg/mL.

And the “IL-2 in nasal secretions, after treatment” value ([1]; GCV ineffective group, before 139.75 ± 59.26)?
Its value is 125.13 ± 58.88 pg/mL.

What about the “percentage of eosinophils in nasal secretions, change after GCV treatment” value [2, 4] of the same compound?
The value was “no significant change”.

And the “Nasal secretion eosinophils, after treatment” value ([2]; GCV effective group, before 90.54 ± 6.24)?
The value was 93.23 ± 11.99%.

What about the “Nasal secretion eosinophils, after treatment” value ([2]; GCV ineffective group, before 56 ± 46.30) of the same compound?
The value was 54 ± 44.54%.

And the “enrichment of genes of EB virus, human-cytomegalovirus, HSV 1, 2, 3, 6, 7, 8 before and after GCV treatment (FIG. 3B)” value [3]?
Its value is “no statistical difference”.
